The values that follow come from patent US20160106814A1, “Novel Oral Pharmaceutical Composition for Treatment of Diabetes” (NOVO NORDISK A/S, priority 2013, published 2016).

The term Papp A→B denotes how fast a substance crosses the layer from the apical side. What is called half-life is how long it takes for the measured level to halve.

*1 amine or outer side, *2 acyl side, *3 side chain or, on linkers, in order; H or OH if unused. Bridges are numbered along the chain shown (N, C = ends). Roman numbers before positions name the chains, in order. Side-chain parts run from the residue outwards. The star is where a group is joined. C18 diacid = O=C(O)CCCCCCCCCCCCCCCCC(=O)*; NMe2Phe = CN(C)[C@@H](Cc1ccccc1)C(=O)*; γGlu = O=C(O)[C@H](CCC(=O)[*:2])N[*:1]; AEEA = NCCOCCOCC(=O)O; Me2Gly = CN(C)CC(=O)* A value given as a limit tells only on which side of the number the result lay.

A short description of data set [1]: GLP-1 peptide degradation by GI extracts in presence of BBI. In kind it is in vitro ADME, Sprague Dawley rats. The settings on record: half-life with 0.1% BBI divided by half-life without BBI, rat GI juice. The procedure: 96 well plates were coated by incubating with 0.4% BSA solution for a minimum of 60 min. To each well, 210 μl of buffer (HBSS-HEPES buffer with 0.005% Tween 20 and 0.005% BSA, pH 6.5), 30 μl of a substrate (100 μM GLP-1 peptide in buffer) and 30 μl of BBI (1%) were added. The plates were pre-incubated (before adding GI juice) for 60 min at 37° C. After addition of 30 μl of GI juice, the plates were incubated for 60 min/37° C. on shaker. Samples (40 μl) were taken at 0, 3, 6, 10, 30 and 60 min, stopped with 3 vol. cold 96% EtOH w. 1% HCOOH and centrifuged (4500 rcf for 10 min at 4° C.). The resulting supernatant from the samples were diluted 5 times with the buffer prior to LC-MS analysis. Standard samples (0.1, 0.5, 1.0, 5.0, 10.0 μM) were prepared and treated as the samples. Standard curve was analysed both at the beginning and the end of the sequence. Two replicates of each tested conditions were included. Intact GLP-1 peptide was determined in each sample. The results were plotted against the incubation time. Half-lives of the GLP-1 peptide was determined by nonlinear regression of the results using, for example Graph Pad Prism. The half-lives were expressed relative to the half-life of the GLP-1 peptide without BBI present by dividing the half-lives obtained in the presence of inhibitor with those obtained in the absence of BBI. […]

Data set [2] can be described thus: Transport of GLP-1 peptide across mucus-producing E12 cell monolayers in the presence of sodium caprate and BBI. In kind it is in vitro ADME. The settings on record: for Papp A→B at 100 µM: human. The procedure:
Buffer was then removed and the experiment initiated. […] Receiver samples (200 μl) were taken every 15 min.
In all samples with GLP-1 peptide and mannitol, the concentration of GLP-1 peptide was determined using a LOCI assay (or LC-MS assay) and scintillation counter, respectively.

Data set [3] in a line: Insulin peptide degradation by GI extracts in presence of BBI. In kind it is in vitro ADME, Sprague Dawley rats. The conditions noted are these: rat; for half-life at 10 µM: male, Sprague Dawley, real gastrointestinal fluid or homogenate. As for the experimental part:
96 well plates were coated by incubating with 0.4% BSA solution for minimum of 60 min. […] The plates were pre-incubated (before adding GI juice) for 60 min at 37° C. After addition of 30 μl of GI juice, the plates were incubated for 60 min/37° C. on shaker. Samples (40 μl) were taken at 0, 3, 6, 10, 30 and 60 min, stopped with 3 vol. cold 96% EtOH (ethanol) w. 1% HCOOH (formic acid) and centrifuged (4500 rcf for 10 min at 4° C.). The resulting supernatant from the samples were diluted 5 times with the buffer prior to LC-MS analysis. Standard samples (0.1, 0.5, 1.0, 5.0, 10.0 μM) were prepared and treated as the samples. Standard curve was analysed both at the beginning and the end of the sequence. Two replicates of each tested conditions were included. […] The results were plotted against the incubation time. […] GI juice was prepared from male Sprague Dawley rats (200-250 g) by excising approximately 20 cm piece of mid jejunum and rinsing the inside with 2.5 ml 0.9% sodium chloride solution. The sodium chloride solution was collected in a centrifuge tube, pooled from all rats (20) and centrifuged at 4500 rpm./10 min/4° C. The supernatant was aliquoted in tubes and stored at −80° C.

Setting [4] is: pH 7.4, apical to basolateral, 100 μM GLP-1 peptide + 13 mM sodium caprate, without BBI.

As to `CC[C@H](C)[C@H](NC(=O)[C@H](Cc1ccccc1)NC(=O)[C@H](CCC(=O)O)NC(=O)[C@H](CCCCNC(=O)COCCOCCNC(=O)COCCOCCNC(=O)CC[C@H](NC(=O)CCCCCCCCCCCCCCCCC(=O)O)C(=O)O)NC(=O)[C@H](C)NC(=O)[C@H](C)NC(=O)[C@H](CCC(N)=O)NC(=O)CNC(=O)[C@H](CCC(=O)O)NC(=O)[C@H](CC(C)C)NC(=O)[C@H](Cc1ccc(O)cc1)NC(=O)[C@H](CO)NC(=O)[C@H](CO)NC(=O)[C@@H](NC(=O)[C@H](CC(=O)O)NC(=O)[C@H](CO)NC(=O)[C@@H](NC(=O)[C@H](Cc1ccccc1)NC(=O)[C@@H](NC(=O)CNC(=O)[C@H](CCC(=O)O)NC(=O)C(C)(C)NC(=O)[C@@H](N)Cc1cnc[nH]1)[C@@H](C)O)[C@@H](C)O)C(C)C)C(=O)N[C@@H](C)C(=O)N[C@@H](Cc1c[nH]c2ccccc12)C(=O)N[C@@H](CC(C)C)C(=O)N[C@H](C(=O)N[C@@H](CCCNC(=N)N)C(=O)NCC(=O)N[C@@H](CCCNC(=N)N)C(=O)NCC(=O)O)C(C)C` [GLP-1 peptide 1, N{Epsilon-26}-[2-[2-[2-[[2-[2-[2-[[(4S)-4-carboxy-4-(17-carboxy-heptadecanoylamino)butanoyl]amino]ethoxy]ethoxy]acetyl]amino]ethoxy]ethoxy]acetyl]-[Aib8,Arg34]-GLP-1-(7-37)-peptide], the “Half Life (fold increase)” value in data set [1] is on record as above 15 fold. In addition, the Papp A→B at 100 µM in data set [2] (setting [4]) came out at 1.48 nm/s; in data set [2] (pH 7.4, with Bowman Birk inhibitor (BBI) 0.2%, apical to basolateral, 100 μM GLP-1 peptide + 13 mM sodium caprate + 0.2% BBI), 3.19 nm/s.
For `CC[C@H](C)[C@H](NC(=O)[C@H](Cc1ccccc1)NC(=O)[C@H](CCC(=O)O)NC(=O)[C@H](CCCCNC(=O)COCCOCCNC(=O)COCCOCCNC(=O)CC[C@H](NC(=O)CCCCCCCCCOc1ccc(C(=O)O)cc1)C(=O)O)NC(=O)[C@H](C)NC(=O)[C@H](C)NC(=O)[C@H](CCC(N)=O)NC(=O)CNC(=O)[C@H](CCC(=O)O)NC(=O)[C@H](CC(C)C)NC(=O)[C@H](Cc1ccc(O)cc1)NC(=O)[C@H](CO)NC(=O)[C@H](CO)NC(=O)[C@@H](NC(=O)[C@H](CC(=O)O)NC(=O)[C@H](CO)NC(=O)[C@@H](NC(=O)[C@H](Cc1ccccc1)NC(=O)[C@@H](NC(=O)CNC(=O)[C@H](CCC(=O)O)NC(=O)C(C)(C)NC(=O)[C@@H](N)Cc1c[nH]cn1)[C@@H](C)O)[C@@H](C)O)C(C)C)C(=O)N[C@@H](C)C(=O)N[C@@H](Cc1c[nH]c2ccccc12)C(=O)N[C@@H](CC(C)C)C(=O)N[C@H](C(=O)N[C@@H](CCCNC(=N)N)C(=O)NCC(=O)N[C@@H](CCCNC(=N)N)C(=O)N[C@@H](CCCCNC(=O)COCCOCCNC(=O)COCCOCCNC(=O)CC[C@H](NC(=O)CCCCCCCCCOc1ccc(C(=O)O)cc1)C(=O)O)C(=O)O)C(C)C` [GLP-1 peptide 9, N{Epsilon-26}-[2-[2-[2-[[2-[2-[2-[[(4S)-4-carboxy-4-[10-(4-carboxyphenoxy)-decanoylamino]butanoyl]amino]ethoxy]ethoxy]acetyl]amino]ethoxy]ethoxy]acetyl], N{Epsilon-37}-[2-[2-[2-[[2-[2-[2-[[(4S)-4-carboxy-4-[10-(4-carboxyphenoxy)decanoylamino]butanoyl]-amino]ethoxy]ethoxy]acetyl]amino]ethoxy]ethoxy]acetyl]-[Aib8,Arg34, Lys37]-GLP-1-(7-37)-peptide], the Papp A→B in data set [2] (pH 7.4, apical to basolateral, 100 μM GLP-1 peptide + 13 mM sodium caprate + 0.2% BBI) worked out at 3.79 nm/s; in data set [2] (setting [4]), 2.72 nm/s.
“I: NMe2Phe-VNQHLCGSHLVEALYLVCGERGFHYTPK([AEEA-AEEA-γGlu-C18 diacid])-OH / II: Me2Gly-IVEQCCTSICSLEQLENYCN-OH (disulfide I:6-II:6, I:18-II:19, II:5-II:10) [Insulin 2, N{A1},N{A1}-dimethyl,N{B1},N{B1}-dimethyl,N{Epsilon-B29}-[2-[2-[2-[[2-[2-[2-[[(4S)-4-carboxy-4-(17-carboxyheptadecanoylamino)butanoyl]amino]ethoxy]ethoxy]acetyl]amino]-ethoxy]ethoxy]acetyl]-[GluA14,HisB25],des-ThrB30-Insulin(human)]”: the half-life at 10 µM in data set [3] (pH 6.5, Half Life of insulin peptide) is 1.1 min; in data set [3] (pH 6.5, Half Life of insulin peptide in presence of 0.1% BBI) it was above 1000 min. In data set [3], the “Half Life (fold increase)” value is recorded as above 910 fold.
